The term IC50 denotes the concentration that inhibits the measured activity by half.

Bridge positions count the residues as written; N and C are the ends. Square brackets hold non-standard residues; d marks the D form. Peptide text beside a SMILES is read from it. * marks the point of attachment. ξ: configuration not given here. Phe(4-COOH) = N[C@@H](Cc1ccc(C(=O)O)cc1)C(=O)O; Bip = N[C@@H](Cc1ccc(-c2ccccc2)cc1)C(=O)O; NH(CH2)14COOH = O=C(O)CCCCCCCCCCCCCCN*; hArg = N=C(N)NCCCC[C@H](N)C(=O)O; 4Pal = N[C@@H](Cc1ccncc1)C(=O)O; Cha = N[C@@H](CC1CCCCC1)C(=O)O; Thr(3ξ) = CC(O)[C@H](N)C(=O)O; Carboxymethyl = O=C(O)C*; Orn = NCCC[C@H](N)C(=O)O; Aun = NCCCCCCCCCCC(=O)O; Dab = NCC[C@H](N)C(=O)O; AEEA = NCCOCCOCC(=O)O

The record followed here is US20260022142A1, “MACROCYCLIC IMMUNOMODULATORS” (Bristol-Myers Squibb Company, priority 2022, published 2026).

T1 sequence (Q15116 25-288): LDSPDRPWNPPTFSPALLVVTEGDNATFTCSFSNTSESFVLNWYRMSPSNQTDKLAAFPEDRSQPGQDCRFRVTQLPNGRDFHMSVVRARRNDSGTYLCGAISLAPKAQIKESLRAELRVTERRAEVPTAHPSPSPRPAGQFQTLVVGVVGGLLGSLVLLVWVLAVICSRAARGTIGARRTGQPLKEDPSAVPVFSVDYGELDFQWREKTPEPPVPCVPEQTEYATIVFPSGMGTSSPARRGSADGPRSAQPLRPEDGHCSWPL

This experiment addresses T1, PD-1/PD-L1 interaction (PE-labeled human PD-L1-Ig binding to Jurkat cell line over-expressing human PD-1) (Homo sapiens, UniProt Q15116).
T1 construct: expressed in transfected cells; host or cells: Jurkat
The experiment is described as follows: Jurkat-PD-1 Cell Binding High-Content Screening Assay (CBA). The class given is cell-based. Conditions: Jurkat cell line over-expressing human PD-1; PE-labeled PD-L1-Ig 20 nM final; read-out: Jurkat hPD1-PDL1 IC50. Summed up:
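Jurkat-hPD-1 cells, DMEM/10% FCS; cpd 2 h 37° C; PE-PD-L1-Ig 20 nM final, 1 h; 4% PFA fix + Hoechst 33342, 3× dPBS wash; high-content imaging read-out.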
Turning to `CC(C)C[C@H]1NC(=O)[C@H](CCCN)NC(=O)[C@H](C(C)C)NC(=O)[C@H](Cc2ccc(-c3ccccc3)cc2)NC(=O)[C@H](C(C)C)NC(=O)[C@H](Cc2c[nH]c3ccccc23)NC(=O)[C@H](CC(=O)O)NC(=O)[C@H](Cc2ccc(C(=O)O)cc2)NC(=O)[C@H](C(C)O)NC(=O)CSC[C@@H](C(=O)N[C@@H](C)C(=O)N[C@@H](CCCCN)C(=O)NCCCCCCCCCCCCCCC(=O)O)NC(=O)[C@H](C(C)O)NC(=O)[C@H](C(C)C)NC(=O)[C@H](CC2CCCCC2)NC(=O)[C@H](CCN)NC1=O` (stereo partly drawn) [Compound 3021] ({CH2CO}-[Thr(3ξ)][Phe(4-COOH)]DWV[Bip]V[Orn][dL][Dab][Cha]V[Thr(3ξ)]CAK-{NH(CH2)14COOH}; thioether N-14), the IC50 is 130 nM.
Then `CC(C)C[C@H]1NC(=O)[C@H](CCCN)NC(=O)[C@H](C(C)C)NC(=O)[C@H](Cc2ccc(-c3ccccc3)cc2)NC(=O)[C@H](C(C)C)NC(=O)[C@H](Cc2c[nH]c3ccccc23)NC(=O)[C@H](CC(=O)O)NC(=O)[C@H](Cc2ccc(C(=O)O)cc2)NC(=O)[C@H](C(C)O)NC(=O)CSC[C@@H](C(=O)N[C@@H](C)C(=O)NCCOCCOCC(=O)N[C@@H](CCN)C(=O)NCCCCCCCCCCC(=O)O)NC(=O)[C@H](C(C)O)NC(=O)[C@H](C(C)C)NC(=O)[C@H](CC2CCCCC2)NC(=O)[C@H](CCN)NC1=O` (stereo partly drawn) [Compound 3022] ({CH2CO}-[Thr(3ξ)][Phe(4-COOH)]DWV[Bip]V[Orn][dL][Dab][Cha]V[Thr(3ξ)]CA[AEEA][Dab][Aun]-OH; thioether N-14), with 7.3 nM; and `CC(C)C[C@@H]1NC(=O)[C@H](Cc2c[nH]c3ccccc23)NC(=O)[C@H](CC(=O)O)NC(=O)[C@H](Cc2ccc(C(=O)O)cc2)NC(=O)[C@H](C(C)O)NC(=O)CSC[C@@H](C(=O)N[C@@H](CC(N)=O)C(=O)N[C@@H](CCN)C(=O)NCCCCCCCCCCCCCCC(=O)O)NC(=O)[C@H](CO)NC(=O)[C@H](C(C)C)NC(=O)[C@H](CC2CCCCC2)NC(=O)[C@H](CCN)NC(=O)[C@@H](CC(C)C)NC(=O)[C@H](CCCN)NC(=O)[C@H](C(C)C)NC(=O)[C@H](Cc2ccc(-c3ccccc3)cc2)NC1=O` (stereo partly drawn) [Compound 3023] ({CH2CO}-[Thr(3ξ)][Phe(4-COOH)]DWL[Bip]V[Orn][dL][Dab][Cha]VSCN[Dab]-{NH(CH2)14COOH}; thioether N-14), with 184 nM; and `CC(C)C[C@@H]1NC(=O)[C@H](Cc2c[nH]c3ccccc23)NC(=O)[C@H](CC(=O)O)NC(=O)[C@H](Cc2ccc(C(=O)O)cc2)NC(=O)[C@H](C(C)O)NC(=O)CSC[C@@H](C(=O)N[C@@H](C)C(=O)N[C@@H](CCN)C(=O)NCCCCCCCCCCCCCCC(=O)O)NC(=O)[C@H](CO)NC(=O)[C@H](C(C)C)NC(=O)[C@H](CC2CCCCC2)NC(=O)[C@H](Cc2c[nH]cn2)NC(=O)[C@@H](CC(C)C)NC(=O)[C@H](CCCN)NC(=O)[C@H](C(C)C)NC(=O)[C@H](Cc2ccc(-c3ccccc3)cc2)NC1=O` (stereo partly drawn) [Compound 3024] ({CH2CO}-[Thr(3ξ)][Phe(4-COOH)]DWL[Bip]V[Orn][dL]H[Cha]VSCA[Dab]-{NH(CH2)14COOH}; thioether N-14), with 891 nM.
As to `CC(C)C[C@H]1NC(=O)[C@H](CCCN)NC(=O)[C@H](CCC(=O)O)NC(=O)[C@H](Cc2ccc(-c3ccccc3)cc2)NC(=O)[C@H](C(C)C)NC(=O)[C@H](Cc2c[nH]c3ccccc23)NC(=O)[C@H](CC(=O)O)NC(=O)[C@H](Cc2ccncc2)NC(=O)[C@H](C(C)O)NC(=O)CSC[C@@H](C(=O)N[C@@H](C)C(=O)NCCOCCOCC(=O)N[C@@H](CCCCN)C(=O)NCCCCCCCCCCCCCCC(=O)O)NC(=O)[C@H](CO)NC(=O)[C@H](C(C)C)NC(=O)[C@H](CC2CCCCC2)NC(=O)[C@H](CCN)NC1=O` (stereo partly drawn) [Compound 3025] ({CH2CO}-[Thr(3ξ)][4Pal]DWV[Bip]E[Orn][dL][Dab][Cha]VSCA[AEEA]K-{NH(CH2)14COOH}; thioether N-14), the IC50 came out at 80.5 nM.
Regarding `CC(C)C[C@H]1NC(=O)[C@H](CCCN)NC(=O)[C@H](C(C)C)NC(=O)[C@H](Cc2ccc(-c3ccccc3)cc2)NC(=O)[C@H](C(C)C)NC(=O)[C@H](Cc2c[nH]c3ccccc23)NC(=O)[C@H](CC(=O)O)NC(=O)[C@H](Cc2ccc(OCC(=O)O)cc2)NC(=O)[C@H](CCCCNC(=N)N)NC(=O)CSC[C@@H](C(=O)N[C@@H](CC(N)=O)C(=O)NCCOCCOCC(=O)N[C@@H](CCCCN)C(=O)NCCCCCCCCCCC(=O)O)NC(=O)[C@H](C(C)O)NC(=O)[C@H](C(C)C)NC(=O)[C@H](CC2CCCCC2)NC(=O)[C@H](CCN)NC1=O` (stereo partly drawn) [Compound 3026] ({CH2CO}-[hArg]Y(Carboxymethyl)DWV[Bip]V[Orn][dL][Dab][Cha]V[Thr(3ξ)]CN[AEEA]K[Aun]-OH; thioether N-14), the IC50 worked out at 10 nM.
The result for `CC(C)C[C@H]1NC(=O)[C@H](CCCN)NC(=O)[C@H](C(C)C)NC(=O)[C@H](Cc2ccc(-c3ccccc3)cc2)NC(=O)[C@H](C(C)C)NC(=O)[C@H](Cc2c[nH]c3ccccc23)NC(=O)[C@H](CC(=O)O)NC(=O)[C@H](Cc2ccc(OCC(=O)O)cc2)NC(=O)[C@H](C(C)O)NC(=O)CSC[C@@H](C(=O)N[C@@H](CC(N)=O)C(=O)NCCOCCOCC(=O)N[C@@H](CCCCN)C(=O)NCCCCCCCCCCC(=O)O)NC(=O)[C@H](C(C)O)NC(=O)[C@H](C(C)C)NC(=O)[C@H](CC2CCCCC2)NC(=O)[C@H](CCN)NC1=O` (stereo partly drawn) [Compound 3027] ({CH2CO}-[Thr(3ξ)]Y(Carboxymethyl)DWV[Bip]V[Orn][dL][Dab][Cha]V[Thr(3ξ)]CN[AEEA]K[Aun]-OH; thioether N-14) reads 9.5 nM; that for `CC(C)C[C@H]1NC(=O)[C@H](CCCN)NC(=O)[C@H](C(C)C)NC(=O)[C@H](Cc2ccc(-c3ccccc3)cc2)NC(=O)[C@H](C(C)C)NC(=O)[C@H](Cc2c[nH]c3ccccc23)NC(=O)[C@H](CC(=O)O)NC(=O)[C@H](Cc2ccc(OCC(=O)O)cc2)NC(=O)[C@H](CCCCNC(=N)N)NC(=O)CSC[C@@H](C(=O)N[C@@H](C)C(=O)NCCOCCOCC(=O)N[C@@H](CCN)C(=O)NCCCCCCCCCCC(=O)O)NC(=O)[C@H](C(C)O)NC(=O)[C@H](C(C)C)NC(=O)[C@H](CC2CCCCC2)NC(=O)[C@H](CCN)NC1=O` (stereo partly drawn) [Compound 3028] ({CH2CO}-[hArg]Y(Carboxymethyl)DWV[Bip]V[Orn][dL][Dab][Cha]V[Thr(3ξ)]CA[AEEA][Dab][Aun]-OH; thioether N-14), 16.4 nM.
With `CC(C)C[C@H]1NC(=O)[C@H](CCCN)NC(=O)[C@H](C(C)C)NC(=O)[C@H](Cc2ccc(-c3ccccc3)cc2)NC(=O)[C@H](C(C)C)NC(=O)[C@H](Cc2c[nH]c3ccccc23)NC(=O)[C@H](CC(=O)O)NC(=O)[C@H](Cc2ccc(OCC(=O)O)cc2)NC(=O)[C@H](C(C)O)NC(=O)CSC[C@@H](C(=O)N[C@@H](C)C(=O)NCCOCCOCC(=O)N[C@@H](CCN)C(=O)NCCCCCCCCCCC(=O)O)NC(=O)[C@H](C(C)O)NC(=O)[C@H](C(C)C)NC(=O)[C@H](CC2CCCCC2)NC(=O)[C@H](CCN)NC1=O` (stereo partly drawn) [Compound 3029] ({CH2CO}-[Thr(3ξ)]Y(Carboxymethyl)DWV[Bip]V[Orn][dL][Dab][Cha]V[Thr(3ξ)]CA[AEEA][Dab][Aun]-OH; thioether N-14), the half-inhibitory concentration (IC50) is 7.9 nM.
